Where “and” joins values, the source holds several entries; their conditions need not be identical. Identical values can stand only once. Toxic doses and inconclusive results are not listed.
Tested on: BDF1 mice, P388 leukemia ip, median survival T/C
Assay: NCI In Vivo Anticancer Drug Screen. Data for tumor model P388 Leukemia (intraperitoneal) in B6D2F1 (BDF1) mice
Conditions: endpoint: median survival time, higher = longer survival
Summary of the method: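 T/C = treated-group survival ÷ vehicle-control survival; tumour transplanted into mice before dosing.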

[1] = dose: 100.0 mg/kg/injection, schedule: Q04DX003 (ip), vehicle: saline with Tween-80

O=C(Nc1ccc(NC(=O)c2ccc(C3=NCCCN3)cc2)cc1)Nc1ccc(C2=NCCCN2)cc1
T/C (dose: 2.5 mg/kg/injection, schedule: Q01DX009 (ip), vehicle: saline with Tween-80): 113 % of control
T/C (dose: 5.0 mg/kg/injection, schedule: Q01DX009 (ip), vehicle: saline with Tween-80): 168 % of control
T/C (dose: 5.0 mg/kg/injection, schedule: Q04DX003 (ip), vehicle: saline with Tween-80): 109 % of control
T/C (dose: 6.6 mg/kg/injection, schedule: Q01DX009 (ip), vehicle: saline with Tween-80): 175 % of control
T/C (dose: 10.0 mg/kg/injection, schedule: Q01DX009 (ip), vehicle: saline with Tween-80): 233 % of control and 204 % of control
T/C (dose: 10.0 mg/kg/injection, schedule: Q04DX003 (ip), vehicle: saline with Tween-80): 109 % of control
T/C (dose: 15.0 mg/kg/injection, schedule: Q01DX009 (ip), vehicle: saline with Tween-80): 233 % of control

O=CNc1ccc(C(=O)O)cc1
T/C [1]: 100 % of control
T/C (dose: 200.0 mg/kg/injection, schedule: Q04DX003 (ip), vehicle: saline with Tween-80): 104 % of control
T/C (dose: 400.0 mg/kg/injection, schedule: Q04DX003 (ip), vehicle: saline with Tween-80): 91 % of control

COCCNCCN1CCN(CCCN2c3ccccc3Sc3ccc(C(F)(F)F)cc32)CC1
T/C (dose: 20.0 mg/kg/injection, schedule: Q04DX003 (ip), vehicle: saline): 105 % of control and 106 % of control
T/C (dose: 40.0 mg/kg/injection, schedule: Q04DX003 (ip), vehicle: saline): 108 % of control and 113 % of control
T/C (dose: 80.0 mg/kg/injection, schedule: Q04DX003 (ip), vehicle: saline): 120 % of control

O=C1CC2(C(=O)N1CN1CCN(c3ccc(F)cc3)CC1)c1ccccc1-c1ccccc12 (tested in a mixture with another compound)
T/C (dose: 25.0 mg/kg/injection, schedule: Q04DX003 (ip), vehicle: saline with Tween-80): 101 % of control and 107 % of control and 121 % of control
T/C (dose: 50.0 mg/kg/injection, schedule: Q04DX003 (ip), vehicle: saline with Tween-80): 91 % of control and 101 % of control
T/C [1]: 97 % of control and 105 % of control

O=C(OC(=O)c1ccc([N+](=O)[O-])cc1)c1ccc([N+](=O)[O-])cc1
T/C (dose: 100.0 mg/kg/injection, schedule: Q04DX003 (sc), vehicle: olive oil, sesame oil, peanut oil): 110 % of control
T/C (dose: 200.0 mg/kg/injection, schedule: Q04DX003 (sc), vehicle: olive oil, sesame oil, peanut oil): 105 % of control
T/C (dose: 400.0 mg/kg/injection, schedule: Q04DX003 (sc), vehicle: olive oil, sesame oil, peanut oil): 105 % of control

CCOC(/C=C/c1ccccc1)OCC
T/C (dose: 264.0 mg/kg/injection, schedule: Q04DX003 (ip), vehicle: saline): 90 % of control
T/C (dose: 400.0 mg/kg/injection, schedule: Q04DX003 (ip), vehicle: saline): 100 % of control
T/C (dose: 600.0 mg/kg/injection, schedule: Q04DX003 (ip), vehicle: saline): 113 % of control

NP(=O)(N1CC1)N1CC1
T/C (dose: 6.25 mg/kg/injection, schedule: Q04DX003 (ip), vehicle: saline): 100 % of control
T/C (dose: 25.0 mg/kg/injection, schedule: Q04DX003 (ip), vehicle: saline): 230 % of control

CCC1C(=O)NC(=O)C1(C)c1ccccc1 (stereo not given)
T/C (dose: 50.0 mg/kg/injection, schedule: Q01DX009 (ip), vehicle: saline with Tween-80): 191 % of control
T/C (dose: 100.0 mg/kg/injection, schedule: Q01DX009 (ip), vehicle: saline with Tween-80): 122 % of control
T/C (dose: 200.0 mg/kg/injection, schedule: Q01DX009 (ip), vehicle: saline with Tween-80): 120 % of control

Cc1c2ccccc2c(C)c2c1ccc1ccccc12
T/C (dose: 1.7 mg/kg/injection, schedule: Q01DX009 (ip), vehicle: saline with Tween-80): 172 % of control
T/C (dose: 2.6 mg/kg/injection, schedule: Q01DX009 (ip), vehicle: saline with Tween-80): 163 % of control
T/C (dose: 4.0 mg/kg/injection, schedule: Q01DX009 (ip), vehicle: saline with Tween-80): 177 % of control
T/C (dose: 6.0 mg/kg/injection, schedule: Q01DX009 (ip), vehicle: saline with Tween-80): 168 % of control
T/C (dose: 13.0 mg/kg/injection, schedule: Q01DX009 (ip), vehicle: saline with Tween-80): 172 % of control

CC1=CC(C)(C)Nc2ccc(CSc3ccccc3)cc21
T/C (dose: 50.0 mg/kg/injection, schedule: Q01DX009 (ip), vehicle: saline + alcohol): 102 % of control
T/C (dose: 100.0 mg/kg/injection, schedule: Q01DX009 (ip), vehicle: saline + alcohol): 120 % of control
T/C (dose: 200.0 mg/kg/injection, schedule: Q01DX009 (ip), vehicle: saline + alcohol): 120 % of control

O=NN(CCCl)C(=O)Nc1ccc(I)cc1
T/C (dose: 0.44 mg/kg/injection, schedule: Q01DX009 (ip), vehicle: saline with Tween-80): 113 % of control
T/C (dose: 0.66 mg/kg/injection, schedule: Q01DX009 (ip), vehicle: saline with Tween-80): 118 % of control
T/C (dose: 0.75 mg/kg/injection, schedule: Q04DX003 (ip), vehicle: saline): 100 % of control
T/C (dose: 0.9 mg/kg/injection, schedule: Q01DX009 (ip), vehicle: saline): 104 % of control
T/C (dose: 1.5 mg/kg/injection, schedule: Q04DX003 (ip), vehicle: saline): 109 % of control
T/C (dose: 3.0 mg/kg/injection, schedule: Q04DX003 (ip), vehicle: saline): 109 % of control
T/C (dose: 3.6 mg/kg/injection, schedule: Q01DX009 (ip), vehicle: saline): 150 % of control
T/C (dose: 44.0 mg/kg/injection, schedule: Q04DX003 (ip), vehicle: saline sonified): 150 % of control
T/C (dose: 66.0 mg/kg/injection, schedule: Q04DX003 (ip), vehicle: saline sonified): 160 % of control
T/C [1]: 215 % of control

Reference: PubChem BioAssay AID328 (DTP/NCI, 2004)
